Reference: US20190167676A1, “METHODS FOR IMPROVING RESISTANCE TO SKELETAL MUSCLE FATIGUE” (Cytokinetics, Inc., priority 2012, published 2019)

Tests used:
rat FDB muscle = assay: Isometric tension force/frequency in rat FDB muscle in vitro; conditions: 10 μM, FIG. 1
Method: Adult male Sprague-Dawley rats (Charles River) between 250 and 300 g were anesthetized with a mixture of isoflurane gas and oxygen and quickly euthanized by cardiac excision. Hind feet were quickly removed at the ankle and placed in oxygenated Krebs solution at 4° C. (composition: 1 mM NaH2PO4, 5 mM KCl, 2 mM CaCl2, 1 mM MgSO4, 137 mM NaCl, 11 mM glucose and 1 mM NaHCO3). Feet were then pinned out in fresh oxygenated Krebs buffer at room temperature and the skin from the sole of the foot removed with scissors. In rats, a small branch of the main flexor digitorum brevis (FDB) muscle extends from the heel of the foot to the little digit. This was dissected free with small scissors and the tendons at each end of the muscle were cut. The muscle was pinned out in Krebs solution and the surrounding fascia removed. Silk thread was tied with a small loop and then knotted on to the end of each tendon, creating a silk loop at each end of the muscle. This was then hooked on to the fixed lever arm and force transducer of an 801A in vitro analysis system (Aurora Scientific, Ontario, Canada) and perfused with Krebs solution at 30° C.
The effect of 10 μM of Compound A on the force/frequency relationship was measured.

[1] = test system: rat plantarflexor muscles; assay: Rat plantar flexor force and power in situ; type: in vivo
Source text: Rats were placed under anesthesia using isoflurane and the sciatic nerve of the experimental leg exposed. The rat was then placed on the platform of an Aurora in-situ muscle analysis rig (806C), maintained at body temperature via a circulating water system. The knee was immobilized in a clamp between two sharpened screws and the foot attached securely to the footplate of a force transducer (Aurora Scientific, Ontario, Canada) using laboratory tape. The muscle was stimulated directly via the sciatic nerve. For isolation of the nerve, a 1 cm incision was made at the upper thigh and the overlying muscle was dissected to expose an approximate 5 mm stretch of the sciatic nerve. This was then dissected free of surrounding connective tissue and a pair of stainless steel needle electrodes (0.10 mm) were hooked around the exposed nerve. The peroneal branch was severed to remove innervation to the plantar-extensor muscle groups. Muscle contractile properties were assessed by applying an electrical current to the nerve and recording the force generated by the muscle via a servomotor. Isokinetic contractile properties were assessed as force generated during a pre-programmed movement of the footplate. Footplate movements were 0.7 radians in size ([…]).
Solutions of Compound A (50% PEG300/10% EtOH/40% cavitron formulation) were administered via a femoral vein catheter as a single slow bolus over a 2 min period, with a maximal dosage volume of 5 ml/Kg. During the experiment, blood was drawn via the tail vein for compound concentration analysis. At the end of each assay, the length and weight of the muscle was recorded, and measured force normalized to the mass of the muscle (N/g).
Compound A increased force generation throughout the curve to generate a total of 55% more work over the 300 second period, while maintaining a similar profile to that of the vehicle.
The same protocol was repeated with a second skeletal muscle troponin activator, 1-((1R)-1-methylpropyl)-6-chloro-7-pyrazolylimidazo[4,5-b]pyridin-2-ol (Compound B). Compound B and analogous skeletal muscle troponin activators are disclosed in U.S. Pat. No. 7,989,469. […] 0.7 radian displacement and stimulation frequency calculated to provide 50% of maximum isokinetic tension. Compound B maintained force generation throughout the curve, at almost 50% of vehicle stimulation frequency, to generate the same total work over the 300 second period, while maintaining a similar profile to that of the vehicle.

healthy female rats = assay: Cage grid hang time; type: in vivo, rat
Method: Static fatigue in conscious rats was assessed by measuring the length of time that healthy female rats would hang upside down from a cage grid. Rats were trained to hang upside-down from a cage grid and the time to drop to soft padding below was recorded. Baseline hang-times were recorded for each animal (n=24) for a two week period of time. The rats were then treated with Compound A (200 ppm) in chow for two weeks while hang times were monitored daily. Finally, the rats were withdrawn from Compound A in their chow for five days while hang times were recorded daily.

[2] = test system: patients with peripheral artery disease and claudication; assay: Safety and tolerability, Phase II study; type: in vivo, human
Method: This study was a double-blind, randomized, placebo-controlled, three-period cross-over, hypothesis generating Phase II study in patients with peripheral artery disease and claudication. […] Secondary objectives included (a) evaluation and characterization of the relationship, if any, between the doses and plasma concentrations of Compound A and its pharmacodynamic effects, and (b) evaluation of the safety and tolerability of Compound A administered as single doses.
Single doses of each of 375 mg Compound A, 750 mg Compound A and placebo were administered in random order with a 6 to 10 day wash out between each dose. […] Assessments include 1) Bilateral Heel Raise Test (as described below) using electrogoniometry at 3 and 6 hours after dosing, and 2) 6-Minute Walk Test at 4 hours after dosing. Results were analyzed using a repeated-measures ANCOVA with treatment, sequence, period, baseline, and patient in the model. In the event of model assumption violations, non-parametric methods were utilized

healthy rats = assay: Fatigue-rotarod running time test; type: in vivo, rat; conditions: between 0.3 mg/kg and 100 mg/kg, FIG. 16
Method: The effect of the fast skeletal muscle troponin activator 1-(2-(((trans)-3-fluoro-1-(3-fluoropyridin-2-yl)cyclobutyl)methylamino)pyrimidin-5-yl)-1H-pyrrole-3-carboxamide (Compound C) on muscle fatigue in healthy rats was determined by a rotarod running time test. Compound C was administered to test rats at the doses between 0.3 mg/kg and 100 mg/kg (˜70 nM-28 μM). On the day of the assessment, the animals began by running at an increasing speed from 14-16 RPM over 5 minutes. Rats were then run at a constantly accelerating rate from 12 RPM to 25 RPM over the course of 10 minutes. Time to fall was recorded, with the test being terminated at 600 seconds. The plasma levels were determined at the end of the experiments (not at Cmax). The plasma levels for the indicated doses were determined to be the following: […]

fast skeletal myofibrils = target: T1, fast skeletal myofibrils (Homo sapiens, UniProt P02585); conditions: cited from earlier work
T1 construct: from tissue; host or cells: fast skeletal muscle myofibrils
T1 sequence (P02585 whole entry): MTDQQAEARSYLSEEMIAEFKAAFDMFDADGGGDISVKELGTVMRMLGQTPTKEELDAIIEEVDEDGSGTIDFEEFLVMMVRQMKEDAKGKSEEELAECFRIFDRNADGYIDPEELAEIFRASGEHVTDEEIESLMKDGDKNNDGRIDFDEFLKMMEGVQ
T1 sequence (P48788 whole entry partner): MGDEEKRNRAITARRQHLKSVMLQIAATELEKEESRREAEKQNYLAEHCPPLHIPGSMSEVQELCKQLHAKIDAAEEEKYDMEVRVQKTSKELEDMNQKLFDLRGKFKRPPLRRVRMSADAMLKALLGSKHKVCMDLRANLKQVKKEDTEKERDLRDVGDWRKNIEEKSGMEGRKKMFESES
T1 sequence (P45378 whole entry partner): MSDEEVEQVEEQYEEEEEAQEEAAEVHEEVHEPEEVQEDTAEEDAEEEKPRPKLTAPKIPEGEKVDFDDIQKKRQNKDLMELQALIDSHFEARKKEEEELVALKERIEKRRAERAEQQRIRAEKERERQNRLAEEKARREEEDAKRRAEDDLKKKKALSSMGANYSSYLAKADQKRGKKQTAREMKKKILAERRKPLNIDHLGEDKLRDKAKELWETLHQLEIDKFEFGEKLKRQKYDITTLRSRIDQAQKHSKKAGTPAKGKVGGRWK

[3] = target: T2, myofibrils from slow skeletal muscle (Homo sapiens, UniProt P63316); conditions: cited from earlier work
T2 construct: from tissue; host or cells: slow skeletal muscle myofibrils

[4] = test system: skinned human vastus lateralis fast fibers; conditions: skinned fast fibers from muscle biopsies; cited from earlier work
[5] = 200 ppm in chow, average final three days of two week dosing
[6] = after withdrawal, average final three days of five day period

SMILES: C#Cc1cnc2nc(O)n(C(CC)CC)c2n1 [Compound A, 6-ethynyl-1-(pentan-3-yl)-1H-imidazo[4,5-b]pyrazin-2-ol]
- sub-maximal force development (force/frequency relationship) (rat FDB muscle): increased sub-maximal force development
- isokinetic force frequency relationship ([1]; at 3.1 radians/s): increased in the submaximal range in a dose dependent manner
- force-velocity relationship ([1]; at 30 Hz): increased across all velocities in a dose and velocity dependent manner
- power output ([1]; corresponding to force velocities at 30 Hz): dose dependent increase
- isometric force frequency relationship ([1]; in situ): increased in the submaximal range in a dose dependent manner
- more total work over the 300 second period ([1]; isokinetic fatigue protocol, 1 flexion per second at 3.1 radians/s, 30 Hz, vs vehicle): 55%
- grid hang time (healthy female rats; [5]): 899 ± 157 s
- grid hang time compared to baseline (healthy female rats; [5]): 160±18%
- grid hang time (healthy female rats; [6]): 698 ± 122 s
- grid hang time, normalized performance (healthy female rats; [6]): 124±12%
- adverse events ([2]; 750 mg single dose): adverse events in two patients
- adverse events vs dose ([2]; single doses 375-750 mg): Dose related adverse events, particularly dizziness and others related to walking
- running time vs vehicle controls (healthy rats): significant increases
- myosin ATPase relationship to Ca2+ concentration (fast skeletal myofibrils): leftward-shift
- effect in myofibrils [3]: little or no effect
- force-calcium relationship [4]: dramatically left-shifts
